In patent publication US9580426B2, “Compounds that expand hematopoietic stem cells” (Novartis AG, priority 2008, dated 2017):

How the values were obtained:
[1] = tested on: Primary adult CD34+ human hematopoietic stem cells (HSCs); assay: % CD34+ assay: HSC expansion screen, dose response; type: cell-based; conditions: Homo sapiens, Hematopoietic stem cell; dose response 1 nM to 10 μM; total number and/or percent of CD34+ cells
Outline: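 Human CD34+ cells, chiefly MACS-enriched from G-CSF-mobilized peripheral blood, were grown at 37° C., 5% CO2 in serum-free StemSpan with TPO, IL-6, Flt-3 ligand and SCF (50 ng/mL each), plus compound or DMSO. Cultures were kept at 10^4–5×10^5 cells/mL and assessed by flow cytometry for CD34 expression. EC50 came from a 1 nM–10 μM dose response.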

[2] = target: T1, human AHR (Homo sapiens, UniProt P35869); assay: cell-based; type: cell-based
T1 construct: endogenous in cells; host or cells: unnamed human cells carrying an AHR-dependent luciferase reporter
T1 sequence (P35869 11-848): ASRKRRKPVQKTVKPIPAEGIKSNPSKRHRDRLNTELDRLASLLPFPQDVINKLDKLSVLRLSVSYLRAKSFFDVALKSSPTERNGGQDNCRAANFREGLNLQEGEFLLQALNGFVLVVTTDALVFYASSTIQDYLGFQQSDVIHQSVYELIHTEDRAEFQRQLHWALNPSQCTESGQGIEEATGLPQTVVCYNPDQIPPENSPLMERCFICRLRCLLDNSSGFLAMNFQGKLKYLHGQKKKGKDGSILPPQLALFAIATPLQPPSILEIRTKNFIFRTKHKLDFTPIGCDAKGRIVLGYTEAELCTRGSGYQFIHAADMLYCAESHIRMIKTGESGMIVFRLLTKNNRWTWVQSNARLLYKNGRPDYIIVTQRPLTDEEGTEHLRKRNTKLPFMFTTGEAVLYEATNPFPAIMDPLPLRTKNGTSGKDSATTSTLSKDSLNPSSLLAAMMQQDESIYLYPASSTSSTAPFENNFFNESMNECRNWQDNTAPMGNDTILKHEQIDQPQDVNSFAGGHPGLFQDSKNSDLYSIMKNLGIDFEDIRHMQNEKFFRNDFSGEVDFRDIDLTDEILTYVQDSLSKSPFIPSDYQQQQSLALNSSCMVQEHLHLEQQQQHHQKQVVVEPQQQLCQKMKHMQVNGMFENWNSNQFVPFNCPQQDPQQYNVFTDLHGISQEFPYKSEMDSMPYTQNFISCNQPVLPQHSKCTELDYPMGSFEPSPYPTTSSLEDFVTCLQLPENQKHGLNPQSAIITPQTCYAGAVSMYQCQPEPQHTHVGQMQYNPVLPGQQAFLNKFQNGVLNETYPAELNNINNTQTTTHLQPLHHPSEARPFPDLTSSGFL
Experimental: Further, the ability of Example 1 to block 2,3,7,8-tetrachlorodibenzo-p-dioxin (TCDD, dioxin)-mediated CYP1B1 mRNA expression by qPCR in mPB-derived CD34^+ cells was determined. Treatment with TCDD (3 nM) caused a 4.5-fold increase in the level of CYP1B1 mRNA compared with the vehicle control (0.01% toluene). […] To determine the effects of Example 1 in AHR transcription the ability of Example 1 to inhibit a dioxin-induced AHR dependent luciferase reporter gene assay was tested.

EC50 [1]: 120 nM
EC50 [2]: 127 nM
dioxin-induced AHR dependent transcription ([2]; 1 μM, cells expressing human AHR): completely abolished
SMILES: CC(C)n1cnc2c(NCCc3ccc(O)cc3)nc(-c3csc4ccccc34)nc21 [Example 1, 4-(2-(2-(benzo[b]thiophen-3-yl)-9-isopropyl-9H-purin-6-ylamino)ethyl)phenol]
agonist activity (induction of AHR dependent transcription) ([2]; human cells): failed to induce AHR dependent transcription
